Where “and” joins values, the source holds several entries; their conditions need not be identical. Identical values can stand only once. Like-named read-outs stand apart in the source and are kept apart here.
Experiments:
[1] = test system: phosphorylation of Serine 473 in Akt, MDA-MB-468 cells; assay: In vitro phospho-Ser473 Akt assay; format: cell-based; conditions: Homo sapiens, MDA-MB-468, Test (c), mean of five occasions, read-out: IC50 versus Serine 473 in Akt, mean value
Description: (c) In Vitro Phospho-Ser473 Akt Assay
This assay determines the ability of test compounds to inhibit phosphorylation of Serine 473 in Akt as assessed using Acumen Explorer technology (Acumen Bioscience Limited), a plate reader that can be used to rapidly quantitate features of images generated by laser-scanning.
A MDA-MB-468 human breast adenocarcinoma cell line (LGC Promochem, Teddington, Middlesex, UK, Catalogue No. HTB-132) was routinely maintained at 37° C. with 5% CO2 up to a confluency of 70-90% in DMEM containing 10% heat-inactivated FCS and 1% L-glutamine.
For the assay, the cells were detached from the culture flask using ‘Accutase’ (Innovative Cell Technologies Inc., San Diego, Calif., USA; Catalogue No. AT104) using standard tissue culture methods and resuspended in media to give 1.7×10^5 cells per mL. Aliquots (90 μl) were seeded into each of the inner 60 wells of a black Packard 96 well plate (PerkinElmer, Boston, Mass., USA; Catalogue No. 6005182) to give a density of ˜15000 cells per well. […]
No. 10010015). […] An aliquot of PBS (50 μl) was added to each well and the plates were sealed with black plate sealers and the fluorescence signal was detected and analysed.
Fluorescence dose response data obtained with each compound were analysed and the degree of inhibition of Serine 473 in Akt was expressed as an IC50 value.

p110α Type Ia human PI3K = target: T1, p110α Type Ia human PI3K (Homo sapiens, UniProt P42336); assay: In vitro PI3K enzyme assay (AlphaScreen), p110α; format: biochemical; conditions: Test (b)
T1 construct: full length DNA of each of the p110α, p110β and p110δ Type Ia human PI3K p110 isoforms; 6-His; made in house
T1 sequence (P42336 whole entry, canonical isoform): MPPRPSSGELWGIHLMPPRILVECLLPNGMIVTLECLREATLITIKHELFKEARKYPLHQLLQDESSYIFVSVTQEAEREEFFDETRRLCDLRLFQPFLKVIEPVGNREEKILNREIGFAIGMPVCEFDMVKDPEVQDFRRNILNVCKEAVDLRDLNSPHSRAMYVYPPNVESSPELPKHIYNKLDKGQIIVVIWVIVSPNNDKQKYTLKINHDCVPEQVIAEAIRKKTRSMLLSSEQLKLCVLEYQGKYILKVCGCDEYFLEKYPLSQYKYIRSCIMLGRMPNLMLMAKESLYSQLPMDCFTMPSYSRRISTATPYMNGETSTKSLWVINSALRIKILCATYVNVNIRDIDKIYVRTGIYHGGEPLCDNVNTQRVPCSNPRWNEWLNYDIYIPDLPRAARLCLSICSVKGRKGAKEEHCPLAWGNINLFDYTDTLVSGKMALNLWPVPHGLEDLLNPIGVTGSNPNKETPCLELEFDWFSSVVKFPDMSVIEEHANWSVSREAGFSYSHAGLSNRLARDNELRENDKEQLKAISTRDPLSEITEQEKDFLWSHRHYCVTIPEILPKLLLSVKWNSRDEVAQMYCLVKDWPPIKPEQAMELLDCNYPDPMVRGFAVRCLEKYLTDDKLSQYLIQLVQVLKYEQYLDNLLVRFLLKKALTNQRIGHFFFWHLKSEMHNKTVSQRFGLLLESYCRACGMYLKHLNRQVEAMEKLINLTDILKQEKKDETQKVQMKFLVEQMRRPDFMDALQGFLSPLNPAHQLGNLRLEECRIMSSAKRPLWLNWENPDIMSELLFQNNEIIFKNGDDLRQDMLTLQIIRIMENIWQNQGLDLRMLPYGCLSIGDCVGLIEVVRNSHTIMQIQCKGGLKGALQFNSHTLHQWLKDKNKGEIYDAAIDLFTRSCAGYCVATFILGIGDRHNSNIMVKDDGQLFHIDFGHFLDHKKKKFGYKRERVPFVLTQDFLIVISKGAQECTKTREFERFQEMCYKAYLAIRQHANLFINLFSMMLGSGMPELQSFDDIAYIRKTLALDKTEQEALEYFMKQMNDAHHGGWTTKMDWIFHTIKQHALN
T1 sequence (P27986 whole entry partner, canonical isoform): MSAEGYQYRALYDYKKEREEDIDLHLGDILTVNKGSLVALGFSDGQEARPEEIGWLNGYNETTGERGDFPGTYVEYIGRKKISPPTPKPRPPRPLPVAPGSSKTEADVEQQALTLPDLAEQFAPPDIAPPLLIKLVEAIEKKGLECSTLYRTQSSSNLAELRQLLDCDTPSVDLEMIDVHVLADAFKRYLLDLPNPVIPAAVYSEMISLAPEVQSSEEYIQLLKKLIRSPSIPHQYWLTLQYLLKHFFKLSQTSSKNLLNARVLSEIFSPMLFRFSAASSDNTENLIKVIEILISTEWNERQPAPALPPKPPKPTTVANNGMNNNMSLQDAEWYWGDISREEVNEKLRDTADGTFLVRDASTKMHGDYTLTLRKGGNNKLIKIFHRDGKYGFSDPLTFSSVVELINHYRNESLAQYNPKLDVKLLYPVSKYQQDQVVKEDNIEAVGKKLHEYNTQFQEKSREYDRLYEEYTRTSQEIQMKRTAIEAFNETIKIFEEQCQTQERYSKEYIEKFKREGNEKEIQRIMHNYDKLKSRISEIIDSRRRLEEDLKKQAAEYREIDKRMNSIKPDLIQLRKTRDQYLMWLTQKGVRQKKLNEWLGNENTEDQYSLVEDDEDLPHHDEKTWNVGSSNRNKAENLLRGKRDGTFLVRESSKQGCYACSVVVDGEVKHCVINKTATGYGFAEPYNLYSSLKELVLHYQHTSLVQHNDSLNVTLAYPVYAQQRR
From the text: (b) In Vitro PI3K Enzyme Assay
The assay used AlphaScreen technology (Gray et al., Analytical Biochemistry, 2003, 313: 234-245) to determine the ability of test compounds to inhibit phosphorylation by recombinant Type I PI3K enzymes of the lipid PI(4,5)P2.
DNA fragments encoding human PI3K catalytic and regulatory subunits were isolated from cDNA libraries using standard molecular biology and PCR cloning techniques. The selected DNA fragments were used to generate baculovirus expression vectors. In particular, full length DNA of each of the p110α, p110β and p110δ Type Ia human PI3K p110 isoforms (EMBL Accession Nos. HSU79143, S67334, Y10055 for p110 α, p110β and p110δ respectively) were sub-cloned into a pDEST10 vector (Invitrogen Limited, Fountain Drive, Paisley, UK). The vector is a Gateway-adapted version of Fastbac1 containing a 6-His epitope tag. A truncated form of Type Ib human PI3K p110γ isoform corresponding to amino acid residues 144-1102 (EMBL Accession No. X8336A) and the full length human p85α regulatory subunit (EMBL Accession No. HSP13KIN) were also sub-cloned into pFastBac1 vector containing a 6-His epitope tag. The Type Ia p110 constructs were co-expressed with the p85α regulatory subunit. […]
20 hours at room temperature in the dark. The resultant signals arising from laser light excitation at 680 nm were read using a Packard AlphaQuest instrument. […]

recombinant mTOR = target: T2, recombinant mTOR (Homo sapiens, UniProt P42345); assay: In vitro mTOR kinase assay (AlphaScreen); format: biochemical; conditions: Test (a)
T2 construct: FLAG; made in house
T2 sequence (P42345 1362-2549): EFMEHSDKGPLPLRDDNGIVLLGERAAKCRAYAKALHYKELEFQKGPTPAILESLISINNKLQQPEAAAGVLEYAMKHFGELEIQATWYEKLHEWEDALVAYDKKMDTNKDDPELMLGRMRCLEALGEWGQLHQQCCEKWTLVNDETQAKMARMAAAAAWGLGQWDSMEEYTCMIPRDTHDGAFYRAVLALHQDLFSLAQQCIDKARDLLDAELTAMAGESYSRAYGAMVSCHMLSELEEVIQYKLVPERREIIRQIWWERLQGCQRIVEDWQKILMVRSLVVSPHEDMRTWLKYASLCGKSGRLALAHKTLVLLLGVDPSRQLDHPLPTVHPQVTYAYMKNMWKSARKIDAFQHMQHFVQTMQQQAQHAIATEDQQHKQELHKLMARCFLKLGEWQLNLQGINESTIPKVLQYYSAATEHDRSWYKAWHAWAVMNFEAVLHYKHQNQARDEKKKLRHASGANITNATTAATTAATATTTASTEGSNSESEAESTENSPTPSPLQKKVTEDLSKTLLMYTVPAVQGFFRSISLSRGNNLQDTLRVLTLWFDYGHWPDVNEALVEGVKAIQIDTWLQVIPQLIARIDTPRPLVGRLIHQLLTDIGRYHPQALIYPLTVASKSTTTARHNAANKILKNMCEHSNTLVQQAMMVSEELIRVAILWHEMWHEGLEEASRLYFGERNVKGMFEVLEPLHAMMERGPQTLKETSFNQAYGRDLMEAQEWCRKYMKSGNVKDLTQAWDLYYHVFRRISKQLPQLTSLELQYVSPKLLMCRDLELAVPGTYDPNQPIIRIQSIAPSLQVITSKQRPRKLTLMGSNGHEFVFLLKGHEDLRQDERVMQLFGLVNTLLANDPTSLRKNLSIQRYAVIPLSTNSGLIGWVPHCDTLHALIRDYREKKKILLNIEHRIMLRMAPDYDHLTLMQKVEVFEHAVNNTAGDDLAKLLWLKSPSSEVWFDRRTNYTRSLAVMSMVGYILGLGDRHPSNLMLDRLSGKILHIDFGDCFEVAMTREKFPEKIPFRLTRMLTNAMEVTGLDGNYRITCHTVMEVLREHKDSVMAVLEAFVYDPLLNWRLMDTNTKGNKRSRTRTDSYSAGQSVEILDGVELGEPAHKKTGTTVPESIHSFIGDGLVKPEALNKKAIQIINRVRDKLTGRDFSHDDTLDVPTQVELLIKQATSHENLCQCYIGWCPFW
Description: (a) In Vitro mTOR Kinase Assay
The assay used AlphaScreen technology (Gray et al., Analytical Biochemistry, 2003, 313: 234-245) to determine the ability of test compounds to inhibit phosphorylation by recombinant mTOR.
The HEK293 FLAG-tagged mTOR (1362-2549) stable cell line was routinely maintained at 37° C. with 5% CO2 up to a confluency of 70-90% in Dulbecco's modified Eagle's growth medium (DMEM; Invitrogen Limited, Paisley, UK Catalogue No. 41966-029) containing 10% heat-inactivated foetal calf serum (FCS; Sigma, Poole, Dorset, UK, Catalogue No. F0392), 1% L-glutamine (Gibco, Catalogue No. 25030-024) and 2 mg/ml Geneticin
(G418 sulfate; Invitrogen Limited, UK Catalogue No. 10131-027). […]
Each reaction was stopped by the addition of 10 μl of a mixture of EDTA (50 mM), bovine serum albumin (BSA; 0.5 mg/mL) and Tris-HCl pH7.4 buffer (50 mM) containing p70 S6 Kinase (T389) 1A5 Monoclonal Antibody (Cell Signalling Technology, Catalogue No. 9206B) and AlphaScreen Streptavidin donor and Protein A acceptor beads (200 ng; Perkin Elmer, Catalogue No. 6760002B and 6760137R respectively) were added and the assay plates were left for about 20 hours at room temperature in the dark. The resultant signals arising from laser light excitation at 680 nm were read using a Packard Envision instrument. […]
mTOR enzyme inhibition for a given test compound was expressed as an IC50 value.

SMILES	IC50 [1] [µM]	IC50 (p110α Type Ia human PI3K; mean of three occasions, read-out: IC50 versus p110α Type Ia human PI3K, mean value) [µM]	IC50 (p110α Type Ia human PI3K; single occasions, read-out: IC50 versus p110α Type Ia human PI3K)	IC50 (recombinant mTOR; mean of three occasions, read-out: IC50 versus mTOR kinase, mean value) [µM]	IC50 (recombinant mTOR; single occasions, read-out: IC50 versus mTOR kinase)
O=S(=O)(Cc1cc(N2CCOCC2)nc(-c2ccccn2)n1)c1ccccc1 [Example 44, 4-(benzenesulfonylmethyl)-6-morpholin-4-yl-2-pyridin-2-yl-pyrimidine]	8.84				
O=S(=O)(CCc1cccc(C(F)(F)F)c1)Cc1cc(N2CCOCC2)nc(-c2ccccn2)n1 [Example 65, 4-morpholin-4-yl-2-pyridin-2-yl-6-[2-[3-(trifluoromethyl)phenyl]ethylsulfonylmethyl] pyrimidine]		6.8	1.9 µM and 13 µM and 5.7 µM	5.4	3.9 µM and 4.1 µM and 8.2 µM

Source: patent US20110034454A1, “MORPHOLINO PYRIMIDINE DERIVATIVES AND THEIR USE IN THERAPY” (priority 2006, published 2011)
